As usually defined, the IC50 is the concentration needed to halve the response being measured.

These results are taken from patent publication US9580416B2, “Inhibitors of Bruton's tyrosine kinase” (PHARMACYCLICS LLC, priority 2014, dated 2017).

Type in all cases: biochemical
The target in test [1] is Lck (Homo sapiens, UniProt P06239). The test is described as follows: Lck kinase activity, TR-FRET assay. Particulars: read-out: LCK (IC50). The protocol: Btk kinase activity is determined using a time-resolved fluorescence resonance energy transfer (TR-FRET) methodology. Measurements are performed in a reaction volume of 50 μL using 96-well assay plates. Kinase enzyme, inhibitor, ATP (at the Km for the kinase), and 1 […] (Biotin-AVLESEEELYSSARQ-NH2) are incubated in a reaction buffer composed of 20 mM Tris, 50 mM NaCl, MgCl2 (5-25 mM depending on the kinase), MnCl2 (0-10 mM), 1 mM DTT, 0.1 mM EDTA, 0.01% bovine serum albumin, 0.005% Tween-20, and 10% DMSO at pH 7.4 for one hour. The reaction is quenched by the addition of 1.2 equivalents of EDTA (relative to divalent cation) in 25 μL of 1× Lance buffer (Perkin-Elmer). Streptavidin-APC (Perkin-Elmer) and Eu-labeled p-Tyr100 antibody (Perkin-Elmer) in 1× Lance buffer are added in a 25 μL volume to give final concentrations of 100 nM and 2.5 nM, respectively, and the mixture is allowed to incubate for one hour. The TR-FRET signal is measured on a multimode plate reader with an excitation wavelength (λEx) of 330 nm and detection wavelengths (λEm) of 615 and 665 nm. Activity is determined by the ratio of the fluorescence at 665 nm to that at 615 nm. For each compound, enzyme activity is measured at various concentrations of compound. Negative control reactions are performed in the absence of inhibitor in replicates of six, and two no-enzyme controls are used to determine baseline fluorescence levels. Inhibition constants, Ki(app), ware obtained using the program BatchKi (Kuzmic et al. (2000), Anal. Biochem. 286:45-50). IC50s are obtained according to the equation: IC50={Ki(app)/(1+[ATP]/Km^ATP)}+[E]total/2;
Sequence of Lck (P06239 whole entry, species assumed): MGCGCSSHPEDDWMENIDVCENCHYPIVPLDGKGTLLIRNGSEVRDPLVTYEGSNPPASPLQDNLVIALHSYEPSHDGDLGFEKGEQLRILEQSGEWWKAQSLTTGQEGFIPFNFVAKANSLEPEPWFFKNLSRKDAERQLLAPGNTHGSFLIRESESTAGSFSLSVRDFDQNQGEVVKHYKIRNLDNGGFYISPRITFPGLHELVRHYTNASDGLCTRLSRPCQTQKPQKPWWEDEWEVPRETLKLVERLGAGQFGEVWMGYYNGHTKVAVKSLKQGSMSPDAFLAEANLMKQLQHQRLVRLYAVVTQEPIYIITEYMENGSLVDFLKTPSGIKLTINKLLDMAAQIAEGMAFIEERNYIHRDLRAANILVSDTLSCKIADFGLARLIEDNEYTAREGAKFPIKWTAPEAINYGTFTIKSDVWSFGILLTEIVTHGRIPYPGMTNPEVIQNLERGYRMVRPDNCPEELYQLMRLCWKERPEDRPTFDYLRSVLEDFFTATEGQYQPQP
For all kinases, [ATP]=Km^ATP, [Btk]total=0.5 nM and [Lck]total=6 nM.

Test [2] addresses EGFR (Homo sapiens, UniProt P00533). The test is described as follows: Inhibition of a panel of kinases, in vitro HotSpot kinase assay: EGFR. Here is the method:
The degree of inhibition of a panel of kinases is determined using the in vitro HotSpot kinase assay (purified enzymes, ^33P-ATP, an appropriate substrate and 1 uM ATP).

Test [3] addresses Btk (Homo sapiens, UniProt Q06187). The test is described as follows: Btk kinase activity, TR-FRET assay. The note with it: read-out: Btk (IC50). The procedure, abridged:
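Enzyme (Btk 0.5 nM; Lck 6 nM) reacted 1 h with inhibitor, ATP at Km and biotin-peptide substrate in pH 7.4 buffer, 10% DMSO. Phosphopeptide detected by Eu-p-Tyr100 antibody plus streptavidin-APC (665/615 nm). IC50 calculated from fitted Ki(app) via ATP/Km correction plus half total enzyme.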
In general terms: In TR-FRET formats the signal depends on donor and acceptor labels being close together.

Sequence of Btk (Q06187 whole entry): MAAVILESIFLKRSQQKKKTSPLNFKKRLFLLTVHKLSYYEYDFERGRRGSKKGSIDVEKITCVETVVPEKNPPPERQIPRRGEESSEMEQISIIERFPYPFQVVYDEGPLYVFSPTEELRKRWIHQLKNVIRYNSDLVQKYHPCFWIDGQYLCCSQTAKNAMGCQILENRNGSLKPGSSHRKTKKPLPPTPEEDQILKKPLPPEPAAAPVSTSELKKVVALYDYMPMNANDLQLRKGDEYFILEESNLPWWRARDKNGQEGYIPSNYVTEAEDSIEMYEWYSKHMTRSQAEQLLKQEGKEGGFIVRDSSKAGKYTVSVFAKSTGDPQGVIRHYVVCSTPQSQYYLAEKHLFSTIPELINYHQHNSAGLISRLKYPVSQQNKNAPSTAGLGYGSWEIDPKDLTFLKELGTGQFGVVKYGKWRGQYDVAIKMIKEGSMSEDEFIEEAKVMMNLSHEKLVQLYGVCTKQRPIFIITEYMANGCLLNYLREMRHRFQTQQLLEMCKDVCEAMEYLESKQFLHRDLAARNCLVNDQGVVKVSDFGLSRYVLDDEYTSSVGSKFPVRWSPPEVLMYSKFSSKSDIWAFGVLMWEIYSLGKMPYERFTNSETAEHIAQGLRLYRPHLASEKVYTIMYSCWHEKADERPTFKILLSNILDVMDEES
Sequence of EGFR (P00533 25-1210): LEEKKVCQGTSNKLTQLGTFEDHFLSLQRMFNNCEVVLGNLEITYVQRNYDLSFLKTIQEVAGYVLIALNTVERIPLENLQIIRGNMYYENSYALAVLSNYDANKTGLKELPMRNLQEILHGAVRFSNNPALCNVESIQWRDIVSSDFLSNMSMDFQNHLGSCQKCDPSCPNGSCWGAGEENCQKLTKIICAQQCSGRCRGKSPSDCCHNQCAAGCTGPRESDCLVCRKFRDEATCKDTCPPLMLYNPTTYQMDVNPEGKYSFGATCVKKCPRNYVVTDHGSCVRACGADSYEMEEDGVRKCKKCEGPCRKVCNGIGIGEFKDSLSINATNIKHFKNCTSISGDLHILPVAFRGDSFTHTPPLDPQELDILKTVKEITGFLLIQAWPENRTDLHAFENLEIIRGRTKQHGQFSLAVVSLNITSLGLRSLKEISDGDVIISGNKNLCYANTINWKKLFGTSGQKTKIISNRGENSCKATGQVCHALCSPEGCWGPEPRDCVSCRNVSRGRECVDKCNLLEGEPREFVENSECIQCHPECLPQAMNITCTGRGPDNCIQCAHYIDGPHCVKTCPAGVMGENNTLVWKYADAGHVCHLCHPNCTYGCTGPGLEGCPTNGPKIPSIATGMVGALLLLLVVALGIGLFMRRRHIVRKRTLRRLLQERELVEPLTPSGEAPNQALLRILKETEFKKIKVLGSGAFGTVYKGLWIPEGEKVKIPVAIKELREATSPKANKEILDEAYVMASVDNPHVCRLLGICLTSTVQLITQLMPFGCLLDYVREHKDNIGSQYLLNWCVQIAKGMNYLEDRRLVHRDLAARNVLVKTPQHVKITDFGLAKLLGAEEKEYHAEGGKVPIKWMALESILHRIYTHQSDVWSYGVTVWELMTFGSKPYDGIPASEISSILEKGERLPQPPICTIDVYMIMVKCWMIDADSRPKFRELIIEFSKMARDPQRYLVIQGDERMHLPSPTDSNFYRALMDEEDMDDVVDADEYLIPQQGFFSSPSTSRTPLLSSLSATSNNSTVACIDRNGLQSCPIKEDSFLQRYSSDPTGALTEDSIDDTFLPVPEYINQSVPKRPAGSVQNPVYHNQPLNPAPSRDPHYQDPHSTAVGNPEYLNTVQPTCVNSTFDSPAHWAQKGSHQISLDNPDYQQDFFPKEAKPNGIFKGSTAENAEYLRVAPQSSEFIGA

Take `Cc1ccnc(NC(=O)c2ccc(Oc3ccnc4[nH]nc(N[C@@H]5CCCN(C(=O)C6COC6)C5)c34)cc2)c1` [compound 90, N-(4-methylpyridin-2-yl)-4-[(3-{[(3R)-1-(oxetan-3-carbonyl)piperidin-3-yl]amino}-1H-pyrazolo[3,4-b]pyridin-4-yl)oxy]benzamide]: the half-inhibitory concentration (IC50) in test [1] is 100 to 1000 nM; in test [2], 1000 to 10000 nM; in test [3] it was below 100 nM.

Turning to `CN(C)C/C=C/C(=O)N1CC[C@@H](Nc2n[nH]c3nccc(Oc4cccc(Oc5ccccc5)c4)c23)C1` [compound 12, (2E)-4-(dimethylamino)-1-[(3R)-3-{[4-(3-phenoxyphenoxy)-1H-pyrazolo[3,4-b]pyridin-3-yl]amino}pyrrolidin-1-yl]but-2-en-1-one], the IC50 in test [1] is 1000 to 10000 nM; in test [2], 1000 to 10000 nM; in test [3], below 100 nM.

On to `CN(C)C/C=C/C(=O)N1CC[C@@H](Oc2n[nH]c3nccc(Nc4cccc(Oc5ccccc5)c4)c23)C1` [compound 17, (2E)-4-(dimethylamino)-1-[(3R)-3-({4-[(3-phenoxyphenyl)amino]-1H-pyrazolo[3,4-b]pyridin-3-yl}oxy)pyrrolidin-1-yl]but-2-en-1-one], for which the IC50 is 100 to 1000 nM in test [1], below 100 nM in test [2] and below 100 nM in test [3].

With `CN(C)C/C=C/C(=O)N1CC[C@@H](Nc2n[nH]c3nccc(Oc4ccn(Cc5ccccc5)c(=O)c4)c23)C1` [compound 15, 1-benzyl-4-[(3-{[(3R)-1-[(2E)-4-(dimethylamino)but-2-enoyl]pyrrolidin-3-yl]amino}-1H-pyrazolo[3,4-b]pyridin-4-yl)oxy]-1,2-dihydropyridin-2-one], the IC50 is above 10000 nM in test [1], above 10000 nM in test [2] and 100 to 1000 nM in test [3].

As to `CN(C/C=C/C(=O)Nc1ccccc1Nc1n[nH]c2nccc(Oc3ccc(Oc4ccccc4)cc3)c12)C1CC1` [compound 57], the IC50 in test [1], in test [2] and in test [3] was above 10000 nM each time.

`CN1CC[C@@H](Nc2n[nH]c3nccc(Oc4ccc(Oc5ccccc5)cc4)c23)C1` [compound 45]: the IC50 in test [1] was below 100 nM; in test [2], 100 to 1000 nM; in test [3], below 100 nM.

As for `Cc1ccnc(NC(=O)c2ccc(Oc3ccnc4[nH]nc(N[C@@H]5CCCN(C(=O)C6(C)CCC6)C5)c34)cc2)c1` [compound 88, 4-[(3-{[(3R)-1-(1-methylcyclobutanecarbonyl)piperidin-3-yl]amino}-1H-pyrazolo[3,4-b]pyridin-4-yl)oxy]-N-(4-methylpyridin-2-yl)benzamide], the IC50 in test [1] was 1000 to 10000 nM; in test [2], above 10000 nM; in test [3], below 100 nM.

Regarding `CN(C)C/C=C/C(=O)N1CC[C@@H](Nc2n[nH]c3nccc(O[C@H]4CCN(c5ccccc5)C4)c23)C1` [compound 24, (2E)-4-(dimethylamino)-1-[(3R)-3-[(4-{[(3S)-1-phenylpyrrolidin-3-yl]oxy}-1H-pyrazolo[3,4-b]pyridin-3-yl)amino]pyrrolidin-1-yl]but-2-en-1-one], the IC50 is 1000 to 10000 nM in test [1], above 10000 nM in test [2] and 100 to 1000 nM in test [3].

Turning to `COc1ccnc(NC(=O)c2ccc(Oc3ccnc4[nH]nc(N[C@@H]5CCN(C(=O)/C=C/CN(C)C6CC6)C5)c34)cc2)c1` [compound 58], the IC50 is 1000 to 10000 nM in test [1], above 10000 nM in test [2] and below 100 nM in test [3].

Turning to `N#CCC(=O)N1CC[C@@H](Nc2n[nH]c3nccc(Oc4ccc(Oc5ccccc5)cc4)c23)C1` [compound 44], the IC50 is below 100 nM in test [1], 100 to 1000 nM in test [2] and below 100 nM in test [3].

For `CN(C)C/C=C/C(=O)N1CC[C@@H](Nc2n[nH]c3nccc(Oc4cccc(Nc5ccncn5)c4)c23)C1` [compound 20, (2E)-4-(dimethylamino)-1-[(3R)-3-[(4-{3-[(pyrimidin-4-yl)amino]phenoxy}-1H-pyrazolo[3,4-b]pyridin-3-yl)amino]pyrrolidin-1-yl]but-2-en-1-one], the figures for the half-inhibitory concentration (IC50) in test [1], in test [2] and in test [3] were above 10000 nM, 1000 to 10000 nM and above 10000 nM, respectively.

In the case of `CC(C)c1ccnc(NC(=O)c2ccc(Oc3ccnc4[nH]nc(N[C@@H]5CCN(C(=O)/C=C/CN(C)C6CC6)C5)c34)cc2)c1` [compound 61], the half-inhibitory concentration (IC50) in test [1] was 100 to 1000 nM; in test [2], 1000 to 10000 nM; in test [3] it was below 100 nM.

`CCNC(=O)N1CC[C@@H](Nc2n[nH]c3nccc(Oc4ccc(C(=O)Nc5ncc(C)s5)cc4)c23)C1` [compound 189]: the half-inhibitory concentration (IC50) in test [1] is 1000 to 10000 nM; in test [2] it was above 10000 nM; in test [3] it was below 100 nM.

In the case of `CN(C/C=C/C(=O)N1CC[C@@H](Nc2n[nH]c3nccc(Oc4ccc(C(=O)Nc5cc(C#N)ccn5)cc4)c23)C1)C1CC1` [compound 62], the IC50 is 1000 to 10000 nM in test [1], 1000 to 10000 nM in test [2] and below 100 nM in test [3].

For `Cc1ccnc(NC(=O)c2ccc(Oc3ccnc4[nH]nc(N[C@@H]5CCCN(C(=O)C6(C)CCOCC6)C5)c34)cc2)c1` [compound 87, 4-[(3-{[(3R)-1-(4-methyloxane-4-carbonyl)piperidin-3-yl]amino}-1H-pyrazolo[3,4-b]pyridin-4-yl)oxy]-N-(4-methylpyridin-2-yl)benzamide], the IC50 in test [1] is 1000 to 10000 nM; in test [2], above 10000 nM; in test [3], below 100 nM.

Consider `CN1CCC(C(=O)N2CCC[C@@H](Nc3n[nH]c4nccc(Oc5ccc(-c6nc7ccccc7s6)cc5)c34)C2)CC1` [compound 197, (3R)-N-{4-[4-(1,3-benzothiazol-2-yl)phenoxy]-1H-pyrazolo[3,4-b]pyridin-3-yl}-1-(1-methylpiperidine-4-carbonyl)piperidin-3-amine], for which the IC50 in test [1] is 100 to 1000 nM; in test [2], above 10000 nM; in test [3], 100 to 1000 nM.

Consider `CN(C/C=C/C(=O)N1CC[C@@H](Nc2n[nH]c3nccc(Oc4ccc(C(=O)Nc5ccccn5)cc4)c23)C1)C1CC1` [compound 55], for which the IC50 in test [1] is 1000 to 10000 nM; in test [2], above 10000 nM; in test [3], below 100 nM.

Turning to `CCNC(=O)N1CCC[C@@H](Nc2n[nH]c3nccc(Oc4ccc(-c5nc6cccc(C)c6o5)cc4)c23)C1` [compound 182], the IC50 in test [1] is above 10000 nM; in test [2], above 10000 nM; in test [3], 100 to 1000 nM.

In the case of `CN(C(=O)/C=C/CN(C)C1CC1)c1cccc(Nc2n[nH]c3nccc(Oc4ccc(Oc5ccccc5)cc4)c23)c1` [compound 38], the IC50 in test [1] was 100 to 1000 nM; in test [2] it was 100 to 1000 nM; in test [3] it was below 100 nM.

For the molecule `CN(C/C=C/C(=O)N1CC[C@@H](Nc2n[nH]c3nccc(Oc4ccc(C(=O)Nc5ccncn5)cc4)c23)C1)C1CC1` [compound 64], the figures for the IC50 in test [1], in test [2] and in test [3] were above 10000 nM, above 10000 nM and 100 to 1000 nM, respectively.

Turning to `CN(C/C=C/C(=O)N1CC[C@@H](Nc2n[nH]c3nccc(Oc4ccc(C(=O)Nc5cc(OC6CC6)ccn5)cc4)c23)C1)C1CC1` [compound 76, (R,E)-N-(4-cyclopropoxypyridin-2-yl)-4-(3-(1-(4-(cyclopropyl(methyl)amino)but-2-enoyl)pyrrolidin-3-ylamino)-1H-pyrazolo[3,4-b]pyridin-4-yloxy)benzamide], the IC50 was 100 to 1000 nM in test [1], 100 to 1000 nM in test [2] and below 100 nM in test [3].
